# Reference: patent US10273267B2, “Beta-hairpin peptidomimetics as selective elastase inhibitors” (POLYPHOR AG, priority 2013, dated 2019)
# *1 amine or outer side, *2 acyl side, *3 side chain or, on linkers, in order; H or OH if unused. Where a SMILES comes first, the peptide text is derived from it. [ ]: non-standard residue; d: D form. The star is where a group is joined. X2 = C[C@@H](O)[C@@H](CCC(=O)[*:2])N[*:1]; Oic = O=C(O)[C@@H]1C[C@@H]2CCCC[C@@H]2N1; Gly(octyl) = CCCCCCCC[C@H](N)C(=O)O; AllylGly = C=CC[C@H](N)C(=O)O; Octanoyl = CCCCCCCC(=O)*; Dab = NCC[C@H](N)C(=O)O; Dap = NC[C@H](N)C(=O)O
# What was measured:
# Type in all cases: biochemical
# human proteinase 3 = target: T1, human proteinase 3 (Homo sapiens, UniProt P24158); assay: Inhibition of human proteinase 3 (substrate Boc-Ala-Ala-Nva-SBzl); conditions: for hNE/hPr3 selectivity: ratio of hPr3 IC50 to hNE IC50; for IC50: substrate Boc-Ala-Ala-Nva-SBzl 1 mM, enzyme 10 nM, 37° C., pH7.4, read-out: Human proteinase 3 (hPr3) IC50
# T1 construct: purchased Elastin Products Company, USA
# T1 sequence (P24158 28-248): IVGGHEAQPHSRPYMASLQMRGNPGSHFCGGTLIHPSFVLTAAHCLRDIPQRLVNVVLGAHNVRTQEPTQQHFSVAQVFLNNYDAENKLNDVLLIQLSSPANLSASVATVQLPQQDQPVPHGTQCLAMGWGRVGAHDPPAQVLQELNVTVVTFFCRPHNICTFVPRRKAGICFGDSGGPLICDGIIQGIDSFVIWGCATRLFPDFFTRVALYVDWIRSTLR
# Procedure: 2.4 Inhibition of Human Proteinase 3
# The inactivation of human proteinase 3 (Elastin Products Company, USA) by the peptides of the invention using synthetic tripeptidic substrate Boc-Ala-Ala-Nva-SBzl (Elastin Products Company, USA) was determined as follows:
# (§1) The above substrate (1 mM), 4,4′-dithiodipyridine (250 μM) and human proteinase 3 (10 nM) were incubated at 37° C. with serial dilutions of the peptides (0.5% DMSO final) in assay buffer (50 mM Tris, pH7.4, 150 mM NaCl, 0.01% Tween20). The reaction process was followed by monitoring the change in absorbance at 340 nm for 30 minutes. Control assays with the same assay set-up as above, but without peptide, ran linearly. The dose-response data were fitted to the 4-parameter Hill equation providing the IC50 value using Graphpad (Prism 5).
# [1] = target: T2, porcine pancreatic elastase (Sus scrofa, UniProt P00772); assay: Inhibition of porcine pancreatic elastase (hydrolysis of MeOSuc-AAA-pNA); conditions: for hNE/PPE selectivity: ratio of PPE IC50 to hNE IC50; for IC50: substrate MeOSuc-AAA-pNA 1 mM, enzyme 15 nM, 37° C., pH8, read-out: Porcine pancreatic elastase (PPE) IC50
# T2 construct: purchased Sigma, USA
# T2 sequence (P00772 27-266): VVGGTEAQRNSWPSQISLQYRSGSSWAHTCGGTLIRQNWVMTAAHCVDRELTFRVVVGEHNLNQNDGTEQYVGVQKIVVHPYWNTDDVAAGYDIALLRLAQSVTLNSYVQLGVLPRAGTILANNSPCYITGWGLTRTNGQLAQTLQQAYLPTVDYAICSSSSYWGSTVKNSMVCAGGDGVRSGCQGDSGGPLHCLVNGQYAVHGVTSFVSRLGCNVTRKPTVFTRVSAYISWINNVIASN
# Procedure: 2.3 Inhibition of Porcine Pancreatic Elastase
# The ability of the peptides of the invention to inhibit the hydrolysis activity of porcine pancreatic elastase (Sigma, USA) using the synthetic tripeptidic substrate MeOSuc-AAA-pNA (Bachem, Switzerland) was determined as follows:
# as §1, with “mM)” for “mM), 4,4′-dithiodipyridine (250 μM)”, “porcine pancreatic elastase (15” for “proteinase 3 (10”, “pH8, 100” for “pH7.4, 150”, “release of pNA” for “reaction process”, “405” for “340”
# [2] = target: T3, human neutrophil elastase (Homo sapiens, UniProt P08246); assay: Inhibition of human neutrophil elastase (hydrolysis of MeOSuc-AAPV-pNA); conditions: substrate MeOSuc-AAPV-pNA 0.3 mM, enzyme 10 nM, 37° C., pH 8; read-out: Human neutrophil elastase (hNE) IC50
# T3 construct: purchased Serva Electrophoresis, Germany
# T3 sequence (P08246 30-267): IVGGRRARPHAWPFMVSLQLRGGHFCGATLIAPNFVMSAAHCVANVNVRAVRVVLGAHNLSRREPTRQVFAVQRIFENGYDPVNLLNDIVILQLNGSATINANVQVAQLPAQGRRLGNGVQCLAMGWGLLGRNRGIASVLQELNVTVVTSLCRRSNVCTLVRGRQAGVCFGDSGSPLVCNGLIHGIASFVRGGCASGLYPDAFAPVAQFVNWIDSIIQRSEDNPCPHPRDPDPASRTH
# Procedure: 2.2 Inhibition of Human Neutrophil Elastase
# The ability of the peptides of the invention to inhibit the hydrolysis activity of human neutrophil elastase (Serva Electrophoresis, Germany) using the synthetic tetrapeptidic substrate MeOSuc-AAPV-pNA (Bachem, Switzerland) was determined as follows:
# as §1, with “(0.3 mM)” for “(1 mM), 4,4′-dithiodipyridine (250 μM)”, “neutrophil elastase” for “proteinase 3”, “(1%” for “(0.5%”, “pH 8, 300” for “pH7.4, 150”, “release of pNA” for “reaction process”, “405” for “340”
Compound,hNE/hPr3 selectivity (human proteinase 3),IC50 (human proteinase 3),hNE/PPE selectivity [1],IC50 [1],IC50 [2]
"CCCCCCCC[C@@H]1NC(=O)[C@@H]2CCCN2C(=O)[C@H]2CCCN2C(=O)CC[C@H]([C@@H](C)O)NC(=O)[C@H](CCCCN)NC(=O)[C@H](CCC(N)=O)NC(=O)[C@@H]2CCCN2C(=O)[C@@H]2CCCN2C(=O)[C@H]([C@@H](C)CC)NC(=O)[C@H](CO)NC(=O)[C@H](C)NC(=O)[C@H]([C@@H](C)O)NC(=O)[C@H](CCC(=O)O)NC1=O [Example 11, Cyclo(-OctGly-Glu-Thr-Ala-Ser-Ile-Pro-Pro-Gln-Lys-[H-γ^4-DiHThr-OH]-^DPro-Pro-)] (cyclo([Gly(octyl)]ETASIPPQK[X2][dP]P))",1835,21.1 µM,4217,48.5 µM,0.0115 µM
"CCCCCCCC[C@@H]1NC(=O)[C@H]2CCCN2C(=O)[C@H]2CCCN2C(=O)[C@H]([C@@H](C)O)NC(=O)[C@H](CCCCN)NC(=O)[C@H](CCC(N)=O)NC(=O)[C@@H]2CCCN2C(=O)[C@@H]2CCCN2C(=O)[C@H]([C@@H](C)CC)NC(=O)[C@H](CO)NC(=O)[C@H](C)NC(=O)[C@H]([C@@H](C)O)NC(=O)[C@H](CCC(=O)O)NC1=O [Example 12, Cyclo(-OctGly-Glu-Thr-Ala-Ser-Ile-Pro-Pro-GI n-Lys-Thr-^DPro-^DPro-)] (cyclo([Gly(octyl)]ETASIPPQKT[dP][dP]))",>6579,> 100 µM,>6579,> 100 µM,0.0152 µM
"CCCCCCCC[C@@H]1NC(=O)[C@@H]2CCCN2C(=O)[C@H]2CCCN2C(=O)[C@H](Cc2ccc(O)cc2)NC(=O)[C@H](CCCCN)NC(=O)[C@H](CCC(N)=O)NC(=O)[C@@H]2CCCN2C(=O)[C@@H]2CCCN2C(=O)[C@H]([C@@H](C)CC)NC(=O)[C@H](CO)NC(=O)[C@H](C)NC(=O)[C@H]([C@@H](C)O)NC(=O)[C@H](CNC(=O)[C@@H](N)Cc2ccccc2)NC1=O [Example 14, Cyclo(-OctGly-Dap(Phe)-Thr-Ala-Ser-Ile-Pro-Pro-Gln-Lys-Tyr-^DPro-Pro-)] (cyclo([Gly(octyl)][Dap](Phe)TASIPPQKY[dP]P))",1733,26 µM,367,5.5 µM,0.015 µM
"CCCCCCCC(=O)NCC[C@@H]1NC(=O)[C@@H]2CCCN2C(=O)[C@H]2CCCN2C(=O)[C@H]([C@@H](C)O)NC(=O)[C@H](CCCCN)NC(=O)[C@H](CCC(N)=O)NC(=O)[C@@H]2CCCN2C(=O)[C@@H]2CCCN2C(=O)[C@H]([C@@H](C)CC)NC(=O)[C@H](CO)NC(=O)[C@H](C)NC(=O)[C@H]([C@@H](C)O)NC(=O)[C@H](CCC(=O)O)NC1=O [Example 15, Cyclo(-Dab(Octanoyl)-Glu-Thr-Ala-Ser-Ile-Pro-Pro-Gln-Lys-Thr-^DPro-Pro-)] (cyclo([Dab](Octanoyl)ETASIPPQKT[dP]P))",2366,45.2 µM,4859,92.8 µM,0.0191 µM
"CC[C@H](C)[C@@H]1NC(=O)[C@H](CO)NC(=O)[C@H](C)NC(=O)[C@H]([C@@H](C)O)NC(=O)[C@H](CCC(=O)O)NC(=O)[C@H](CCCNC(=N)N)NC(=O)[C@@H]2CCCN2C(=O)[C@H]2CCCN2C(=O)[C@H]([C@@H](C)O)NC(=O)[C@H](CCCCN)NC(=O)[C@H](CCC(N)=O)NC(=O)[C@@H]2C[C@@H]3CCCC[C@@H]3N2C(=O)[C@@H]2CCCN2C1=O [Example 16, Cyclo(-Arg-Glu-Thr-Ala-Ser-Ile-Pro-Oic-Gln-Lys-Thr-^DPro-Pro-)] (cyclo(RETASIP[Oic]QKT[dP]P))",>6667,> 100 µM,>6667,> 100 µM,0.015 µM
"CC[C@H](C)[C@@H]1NC(=O)[C@H](CO)NC(=O)[C@H](C)NC(=O)[C@H]([C@@H](C)O)NC(=O)[C@H](CCC(=O)O)NC(=O)[C@H](CCC(=O)N[C@@H](Cc2ccccc2)C(=O)O)NC(=O)[C@@H]2CCCN2C(=O)[C@H]2CCCN2C(=O)[C@H](Cc2ccc(O)cc2)NC(=O)[C@H](CCCCN)NC(=O)[C@H](CCC(N)=O)NC(=O)[C@@H]2CCCN2C(=O)[C@@H]2CCCN2C1=O [Example 18, Cyclo(-Glu(Phe)-Glu-Thr-Ala-Ser-Ile-Pro-Pro-Gln-Lys-Tyr-^DPro-Pro-)] (cyclo(E(Phe)ETASIPPQKY[dP]P))",2906,46.2 µM,4660,74.1 µM,0.0159 µM
"CCCCCCCC[C@@H]1NC(=O)[C@H](C)NC(=O)[C@@H](C)NC(=O)[C@H]([C@@H](C)O)NC(=O)[C@H](CCCCN)NC(=O)[C@H](CCC(N)=O)NC(=O)[C@@H]2CCCN2C(=O)[C@@H]2CCCN2C(=O)[C@H]([C@@H](C)CC)NC(=O)[C@H](CO)NC(=O)[C@H](C)NC(=O)[C@H]([C@@H](C)O)NC(=O)[C@H](CCC(=O)O)NC1=O [Example 20, Cyclo(-OctGly-Glu-Thr-Ala-Ser-Ile-Pro-Pro-GI n-Lys-Thr-^DAla-Ala-)] (cyclo([Gly(octyl)]ETASIPPQKT[dA]A))",669,8.9 µM,2128,28.3 µM,0.0133 µM

# The next lines start with the values.
hNE/hPr3 selectivity (human proteinase 3),IC50 (human proteinase 3),hNE/PPE selectivity [1],IC50 [1],IC50 [2],Compound
>9901,> 100 µM,2119,21.4 µM,0.0101 µM,"CCCCCCCC[C@@H]1NC(=O)[C@@H]2CCCN2C(=O)[C@H]2CCCN2C(=O)[C@H]([C@@H](C)O)NC(=O)[C@H](CCCCN)NC(=O)[C@H](CCC(N)=O)NC(=O)[C@@H]2CCCN2C(=O)[C@@H]2CCCN2C(=O)[C@H]([C@@H](C)CC)NC(=O)[C@H](CO)NC(=O)[C@H](C)NC(=O)[C@H]([C@@H](C)O)NC(=O)[C@H](Cc2ccccc2)NC1=O [Example 13, Cyclo(-OctGly-Phe-Thr-Ala-Ser-Ile-Pro-Pro-Gln-Lys-Thr-^DPro-Pro-)] (cyclo([Gly(octyl)]FTASIPPQKT[dP]P))"
4013,60.2 µM,2080,31.2 µM,0.015 µM,"C=CC[C@@H]1NC(=O)[C@H]([C@@H](C)O)NC(=O)[C@H](CCC(=O)O)NC(=O)[C@H](CCC(=O)N[C@@H](Cc2ccccc2)C(=O)O)NC(=O)[C@@H]2CCCN2C(=O)[C@H]2CCCN2C(=O)[C@H](Cc2ccc(O)cc2)NC(=O)[C@H](CCCCN)NC(=O)[C@H](CCC(N)=O)NC(=O)[C@@H]2CCCN2C(=O)[C@@H]2CCCN2C(=O)[C@H]([C@@H](C)CC)NC(=O)[C@H](CO)NC1=O [Example 17, Cyclo(-Glu(Phe)-Glu-Thr-AllylGly-Ser-Ile-Pro-Pro-Gln-Lys-Tyr-^DPro-Pro-)] (cyclo(E(Phe)ET[AllylGly]SIPPQKY[dP]P))"
>3030,> 100 µM,>3030,> 100 µM,0.033 µM,"C=CC[C@@H]1NC(=O)[C@H]([C@@H](C)O)NC(=O)[C@H](CCC(=O)O)NC(=O)[C@H](CCC(=O)N[C@@H](Cc2ccccc2)C(=O)O)NC(=O)[C@@H]2CCCN2C(=O)[C@H]2CCCN2C(=O)[C@H]([C@@H](C)O)NC(=O)[C@H](CCCCN)NC(=O)[C@H](CCC(N)=O)NC(=O)[C@@H]2CCCN2C(=O)[C@@H]2CCCN2C(=O)[C@H]([C@@H](C)CC)NC(=O)[C@H](CO)NC1=O [Example 19, Cyclo(-Glu(Phe)-Glu-Thr-AllylGly-Ser-Ile-Pro-Pro-Gln-Lys-Thr-^DPro-Pro-)] (cyclo(E(Phe)ET[AllylGly]SIPPQKT[dP]P))"
